{"source": "patent US20210379063A1", "about": "“ORAL AMINODIHYDROPHTHALAZINEDIONE COMPOSITIONS AND THEIR USE IN THE TREATMENT OF NON-VIRAL HEPATITIS” (Immunopharma Plus D.O.O., priority 2018, published 2021)", "key": {"porcine stomach (cardia)": {"test_system": "porcine stomach (cardia)", "conditions": "for concentration in receptor compartment, Propranolol stomach, AVG / concentration in receptor compartment, Propranolol stomach: 10 mM donor solution; for concentration in receptor compartment, Propranolol stomach: single chambers"}, "[1]": {"test_system": "porcine large intestine (colon)", "assay": "in vitro", "conditions": "pig, 10 mM, pH 7.4", "description": "(§1) The intestine was prepared so the mucous side will be facing the donor compartment."}, "in vitro": {"assay": "in vitro", "conditions": "pig, pH 7.4", "description": "as §1"}, "[2]": {"conditions": "cited from earlier work"}, "PHMG poisoning": {"test_system": "PHMG poisoning", "assay": "Acute hepatitis caused by alcohol substitute PHMG in rats", "conditions": "single intraperitoneal injection, 50 mg/100 g", "description": "The experiment was carried out on 25 male white outbred rats weighing 200-300 g, in accordance with the recommendations of the international ethics committees on the humane treatment of laboratory animals (EU Council Directive 86/609 EEC dated Nov. 24, 1986). To create an experimental model, an aqueous solution of PHMG was used, which was administered intraperitoneally at a dose of 50 mg/100 g."}}, "note": "“Also recorded” adds a separate entry of the source. Read-outs that look alike come from different tables or passages of the source."}
{"compound": "CC(C)NCC(O)COc1cccc2ccccc12", "note": "(centres unmarked) [Propranolol]", "values": [{"measurement": "permeability through small intestine tissue, in words", "setting": "porcine small intestine", "value": "well adsorbed"}, {"measurement": "concentration in receptor compartment, small intestine, AVG", "setting": "porcine small intestine; 10 mM donor solution, 0 min", "value": 0, "unit": "ng/mL"}, {"measurement": "concentration in receptor compartment, small intestine", "setting": "porcine small intestine; 10 mM donor solution, 0 min, single chambers", "value": 0, "unit": "ng/mL"}, {"measurement": "concentration in receptor compartment, small intestine, AVG", "setting": "porcine small intestine; 10 mM donor solution, 30 min", "value": 1000, "unit": "ng/mL"}, {"measurement": "concentration in receptor compartment, small intestine, AVG", "setting": "porcine small intestine; 10 mM donor solution, 60 min", "value": 5000, "unit": "ng/mL"}, {"measurement": "concentration in receptor compartment, small intestine, AVG", "setting": "porcine small intestine; 10 mM donor solution, 120 min", "value": 13000, "unit": "ng/mL"}, {"measurement": "concentration in receptor compartment, small intestine, AVG", "setting": "porcine small intestine; 10 mM donor solution, 240 min", "value": 33000, "unit": "ng/mL"}, {"measurement": "concentration in receptor compartment, small intestine, AVG", "setting": "porcine small intestine; 10 mM donor solution, 360 min", "value": 55000, "unit": "ng/mL"}, {"measurement": "permeability through small intestine tissue, in words", "setting": "porcine small intestine; listed as propranolol", "value": "permeates well"}, {"measurement": "permeation through stomach tissue, in words", "setting": "porcine stomach (cardia)", "value": "almost no permeation; also recorded: poorly penetrate through the stomach tissue"}, {"measurement": "concentration in receptor compartment, Propranolol stomach, AVG", "setting": "porcine stomach (cardia); 0 min", "value": 0, "unit": "ng/mL"}, {"measurement": "concentration in receptor compartment, Propranolol stomach", "setting": "porcine stomach (cardia); 0 min", "value": 0, "unit": "ng/mL"}, {"measurement": "concentration in receptor compartment, Propranolol stomach, AVG", "setting": "porcine stomach (cardia); 30 min", "value": 0, "unit": "ng/mL"}, {"measurement": "concentration in receptor compartment, Propranolol stomach", "setting": "porcine stomach (cardia); 30 min", "value": 0, "unit": "ng/mL"}, {"measurement": "concentration in receptor compartment, Propranolol stomach, AVG", "setting": "porcine stomach (cardia); 60 min", "value": 0, "unit": "ng/mL"}, {"measurement": "concentration in receptor compartment, Propranolol stomach", "setting": "porcine stomach (cardia); 60 min", "value": 0, "unit": "ng/mL"}, {"measurement": "concentration in receptor compartment, Propranolol stomach, AVG", "setting": "porcine stomach (cardia); 120 min", "value": 0, "unit": "ng/mL"}, {"measurement": "concentration in receptor compartment, Propranolol stomach", "setting": "porcine stomach (cardia); 120 min", "value": 0, "unit": "ng/mL"}, {"measurement": "concentration in receptor compartment, Propranolol stomach, AVG", "setting": "porcine stomach (cardia); 240 min", "value": 0, "unit": "ng/mL"}, {"measurement": "concentration in receptor compartment, Propranolol stomach", "setting": "porcine stomach (cardia); 240 min", "value": 0, "unit": "ng/mL"}, {"measurement": "concentration in receptor compartment, Propranolol stomach, AVG", "setting": "porcine stomach (cardia); 420 min", "value": 0, "unit": "ng/mL"}, {"measurement": "concentration in receptor compartment, Propranolol stomach", "setting": "porcine stomach (cardia); 420 min", "value": 0, "unit": "ng/mL"}, {"measurement": "concentration in receptor comp, large intestine, AVG", "setting": "[1]; 0 min", "value": 0, "unit": "ng/mL"}, {"measurement": "concentration in receptor compartment, large intestine", "setting": "[1]; 0 min", "value": 0, "unit": "ng/mL"}, {"measurement": "mg in receptor comp", "setting": "[1]; 0 min", "value": 0.000, "unit": "mg"}, {"measurement": "concentration in receptor comp, large intestine, AVG", "setting": "[1]; 30 min", "value": 2000, "unit": "ng/mL"}, {"measurement": "mg in receptor comp", "setting": "[1]; 30 min", "value": 0.010, "unit": "mg"}, {"measurement": "concentration in receptor comp, large intestine, AVG", "setting": "[1]; 60 min", "value": 5000, "unit": "ng/mL"}, {"measurement": "mg in receptor comp", "setting": "[1]; 60 min", "value": 0.026, "unit": "mg"}, {"measurement": "concentration in receptor comp, large intestine, AVG", "setting": "[1]; 120 min", "value": 14000, "unit": "ng/mL"}, {"measurement": "mg in receptor comp", "setting": "[1]; 120 min", "value": 0.068, "unit": "mg"}, {"measurement": "concentration in receptor comp, large intestine, AVG", "setting": "[1]; 240 min", "value": 31000, "unit": "ng/mL"}, {"measurement": "mg in receptor comp", "setting": "[1]; 240 min", "value": 0.154, "unit": "mg"}, {"measurement": "concentration in receptor comp, large intestine, AVG", "setting": "[1]; 360 min", "value": 45000, "unit": "ng/mL"}, {"measurement": "mg in receptor comp", "setting": "[1]; 360 min", "value": 0.223, "unit": "mg"}, {"measurement": "concentration in receptor comp, large intestine, AVG", "setting": "[1]; 720 min", "value": 84000, "unit": "ng/mL"}, {"measurement": "mg in receptor comp", "setting": "[1]; 720 min", "value": 0.421, "unit": "mg"}, {"measurement": "recovery at 0 min, 10 mM", "setting": "in vitro", "value": 0, "unit": "%"}, {"measurement": "recovery at 30 min, 10 mM", "setting": "in vitro", "value": 0.16, "unit": "%"}, {"measurement": "recovery at 60 min, 10 mM", "setting": "in vitro", "value": 0.4, "unit": "%"}, {"measurement": "recovery at 120 min, 10 mM", "setting": "in vitro", "value": 1.04, "unit": "%"}, {"measurement": "recovery at 240 min, 10 mM", "setting": "in vitro", "value": 2.36, "unit": "%"}, {"measurement": "recovery at 360 min, 10 mM", "setting": "in vitro", "value": 3.43, "unit": "%"}, {"measurement": "recovery at 720 min, 10 mM", "setting": "in vitro", "value": 6.47, "unit": "%"}, {"measurement": "time of peak plasma levels", "setting": "[2]; after ingestion", "value": "1 to 3", "unit": "h"}, {"measurement": "BSC classification", "setting": "[2]; high solubility, high permeability", "value": "class 1"}]}
{"compound": "polyhexamethyleneguanidine [PHMG]", "values": [{"measurement": "mortality", "setting": "PHMG poisoning", "value": "about 70%"}]}
